The subject of data set [1] is patients with heavy proteinuria (>1.5 g/day). In words: 24-hour urinary protein excretion with high-dose candesartan cilexetil (Example 1). It is filed as in vivo, human. How it is done:
The optimal doses of ACEIs and/or ARBs for maximal reduction in urinary protein excretion are not known. Moreover, beneficial effects from ARBs, such as tissue protection owing to a more complete blockade of the RAAS, may be independent of blood pressure-lowering by ARBs. This investigation was designed to evaluate whether increasing the dose of candesartan cilexetil, in subjects already on the FDA's maximum recommended daily doses of 32 mg, would induce a further reduction in 24-hour urinary protein excretion in patients with heavy proteinuria (urinary protein excretion >1.5 g/day; mean 4.4±2 g/day).
(§1) Ten older patients (67±10 years; 80% male) with heavy proteinuria (>1.5 g/day) were started on 16 or 32 mg of candesartan cilexetil daily. Several patients had renal biopsies performed. Eight patients had nephrotic syndrome, four of whom had diabetic nephropathy, two had focal sclerosis, one had membranous nephropathy, and one had postinfectious nephropathy. The two other patients had nephrosclerosis, one being extremely severe and associated with moderate interstitial disease. Most of the patients were already receiving multiple medications for optimal BP control which included the following: calcium channel blockers (CCBs, 80%), diuretics (70%), beta blockers (40%), alpha blockers (40%), and ACEI (40%). Additional concurrent medications included lipid-lowering agents, anti-ischemic drugs and hypoglycemic agents. No effort was made to standardize any class of medications other than ARBs, and no other controls, such as sodium restriction, were instituted as patients were treated using standard office practice procedures.
(§2) After 1-2 months of therapy, the dose of candesartan cilexetil was titrated upwards (at 16-32 mg dose increments) to 96 mg/d, while 24-hour urine samples were obtained to measure protein and creatinine. The candesartan doses were increased independently of the need for BP control. Subsequently, the effect of increased doses of candesartan on 24-hour urinary protein and creatinine excretion, BP, serum creatinine and potassium were serially measured.
(§3) Baseline data was utilized either prospectively or from past patient records collected close to the time of the clinical observation period. […] Thus, no statistical analysis was performed but general trends are noted.

Data set [2] has the same test system. In words: Blood pressure, serum creatinine, serum potassium and tolerability during candesartan dose titration (Example 1). It is filed as in vivo, human. How it is done: as §1, §2, §3
Data set [3] concerns patients with dilated aortic roots. In words: Aortic root size by M-mode echocardiography under ARB therapy (Example 10). It is filed as in vivo, human. An excerpt: Since regression of the aortic root dilatation on echocardiogram was so unusual, a study was undertaken to evaluate other individuals with aortic root dilatation to determine whether aortic root aneurysms or dilatation could be reduced using ARBs. […] In order to evaluate one group of homogeneous subjects, the following were inclusion criteria: (1) same modality of testing to determine the thickness of the aortic root; (2) same instrument; (3) same interpreter of echocardiogram; (4) subjects needed to be on medication (antihypertensive including ARB or ARB if normotensive); (5) at least 9 months of ARB therapy; and (6) the disease was strictly aneurysm, not CAD or CHF. Applying the above inclusion criteria, a group of 15 subjects was selected for analysis. The group included 13 men and 2 women, aged 66.4±13.3 years and weighing 188.8±29.6 pounds. Aortic root sizes were measured using M-mode echocardiography with a leading-edge-to-leading-edge measurement of the maximal distance between the anterior aortic root wall and the posterior aortic root wall, measured at a level immediately above the cusps at end diastole. The standard deviation for intra-observer error was ±2 mm. Interval changes in aortic root size were measured as initial value-most recent value, where a positive resulting value indicated a corresponding decrease in aortic root size over the interval.

A further data set relates to hypertensive patients. The conditions noted are these: cited from earlier work; for BP reductions in comparative short-term trials between ACEI and ARBs: in vivo.
The target in a further data set is T1, AT1 receptor (Homo sapiens, UniProt P30556).
T1 sequence (P30556 1-359): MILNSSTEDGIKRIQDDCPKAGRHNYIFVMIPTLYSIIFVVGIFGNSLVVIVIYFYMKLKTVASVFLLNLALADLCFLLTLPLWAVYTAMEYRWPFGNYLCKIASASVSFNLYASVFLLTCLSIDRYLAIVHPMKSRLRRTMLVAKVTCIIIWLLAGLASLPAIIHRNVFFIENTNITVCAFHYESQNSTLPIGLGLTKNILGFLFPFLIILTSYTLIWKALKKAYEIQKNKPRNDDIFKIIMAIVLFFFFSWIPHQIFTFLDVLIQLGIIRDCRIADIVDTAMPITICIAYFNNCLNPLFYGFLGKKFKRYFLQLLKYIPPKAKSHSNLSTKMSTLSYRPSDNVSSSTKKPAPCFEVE
The settings on record: cited from earlier work.

Data set [4] deals with subjects with both diabetic and non-diabetic renal disease. In words: Preliminary unpublished observations: microalbuminuria under supramaximal ARB doses. It is filed as in vivo, human. An excerpt:
Strategies to enhance blockade of the tissue RAAS may result in greater renoprotective effects, by further reducing intraglomerular hydrostatic pressure and glomerular hypertrophy, and providing additional improvements in glomerular permselectivity. […] Utilizing ARBs rather than ACEI was chosen owing to evidence that ARBs provide enhanced tissue RAAS blockade by prevention of the ACE escape phenomenon and thus more complete blockade of angiotensin II (AII) produced by both ACE and non-ACE pathways.

Data set [5] deals with normotensive, proteinuric patients with IgA nephropathy. The conditions noted are these: increasing dose of lisinopril; cited from earlier work.
The test system of data set [6] is normotensive patients with IgA nephropathy. The conditions noted are these: cited from earlier work.
Another data set addresses tissue ACE (Homo sapiens, UniProt P12821). The settings on record: compared with other ACEI (e.g., enalapril); due to lipophilic properties; cited from earlier work.

“And” between values parts separate entries of the source, which are not always exact repeats. Equal entries are not always repeated. “Also recorded” adds a separate entry of the source. Where two headings read alike, the source gives them in different places. Marks after values point to notes of the source that are not given here.

Chain of tissue ACE (P12821 30-1306): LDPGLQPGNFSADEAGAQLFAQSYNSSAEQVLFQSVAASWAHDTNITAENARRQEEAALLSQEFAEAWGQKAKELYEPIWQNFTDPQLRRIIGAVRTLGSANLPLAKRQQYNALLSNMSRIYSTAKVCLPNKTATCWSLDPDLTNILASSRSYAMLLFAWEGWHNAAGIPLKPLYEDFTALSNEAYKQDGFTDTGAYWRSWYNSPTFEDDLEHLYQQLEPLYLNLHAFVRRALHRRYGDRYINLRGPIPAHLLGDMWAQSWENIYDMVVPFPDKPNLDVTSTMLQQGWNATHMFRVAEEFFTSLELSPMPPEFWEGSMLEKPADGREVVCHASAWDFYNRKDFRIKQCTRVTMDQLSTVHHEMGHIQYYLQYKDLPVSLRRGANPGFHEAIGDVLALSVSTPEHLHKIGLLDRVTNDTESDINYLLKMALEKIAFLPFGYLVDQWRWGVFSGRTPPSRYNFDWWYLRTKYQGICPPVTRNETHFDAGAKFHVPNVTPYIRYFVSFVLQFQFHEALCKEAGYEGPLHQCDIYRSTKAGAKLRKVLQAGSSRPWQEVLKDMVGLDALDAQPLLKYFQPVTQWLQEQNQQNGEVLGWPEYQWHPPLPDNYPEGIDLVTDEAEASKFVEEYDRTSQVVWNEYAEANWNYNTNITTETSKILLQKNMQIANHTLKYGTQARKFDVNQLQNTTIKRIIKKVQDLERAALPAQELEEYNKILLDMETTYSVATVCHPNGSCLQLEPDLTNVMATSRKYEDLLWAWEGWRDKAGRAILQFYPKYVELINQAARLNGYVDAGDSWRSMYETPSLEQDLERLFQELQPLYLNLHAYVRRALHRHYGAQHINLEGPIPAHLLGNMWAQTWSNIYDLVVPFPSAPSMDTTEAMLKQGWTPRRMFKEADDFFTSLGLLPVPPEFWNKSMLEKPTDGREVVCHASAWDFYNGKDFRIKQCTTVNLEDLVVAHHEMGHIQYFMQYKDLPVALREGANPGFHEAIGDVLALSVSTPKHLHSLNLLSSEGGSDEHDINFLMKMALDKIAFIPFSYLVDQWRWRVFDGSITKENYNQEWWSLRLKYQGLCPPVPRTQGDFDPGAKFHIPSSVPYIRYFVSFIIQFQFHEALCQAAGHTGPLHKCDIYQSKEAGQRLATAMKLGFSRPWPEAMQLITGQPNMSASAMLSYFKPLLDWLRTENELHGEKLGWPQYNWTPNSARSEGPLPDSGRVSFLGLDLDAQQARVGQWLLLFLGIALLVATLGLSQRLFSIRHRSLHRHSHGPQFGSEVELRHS

For the molecule `CCOc1nc2cccc(C(=O)OC(C)OC(=O)OC3CCCCC3)c2n1Cc1ccc(-c2ccccc2-c2nnn[nH]2)cc1` (stereo not drawn) [Candesartan cilexetil, candesartan cilexetil], the “Protein Excretion, Mean” value in data set [1] (16 mg/day column, mean of N=4 (includes one losartan 50 mg and one irbesartan 150 mg value)) was 2.8 g/day; in [1] (32 mg/day column, mean of N=10 (includes one irbesartan 300 mg value)), 2.7 g/day; in data set [1] (candesartan cilexetil 48 mg/day, mean of N=8) it was 1.9 g/day; in data set [1] (candesartan cilexetil 64 mg/day, mean of N=8), 1.6 g/day; in [1] (candesartan cilexetil 80 mg/day, mean of N=8) it was 1.4 g/day; in data set [1] (candesartan cilexetil 96 mg/day, mean of N=5), 1.1 g/day. In addition, the “Protein Excretion (24-hour urinary protein excretion rate)” value was 3.2 g/day and 6.4 g/day in [1] (candesartan cilexetil 16 mg/day, individual patients); 1.1 g/day and 2.0 g/day and 0.8 g/day and 4.9 g/day and 3.3 g/day and 2.7 g/day and 6.4 g/day and 4.6 g/day and 1.2 g/day in [1] (candesartan cilexetil 32 mg/day, individual patients); 0.9 g/day and 0.2 g/day (2×) and 2.6 g/day and 1.7 g/day and 2.9 g/day and 5.8 g/day and 1.2 g/day in data set [1] (candesartan cilexetil 48 mg/day, individual patients); 1.7 g/day and 1.1 g/day and 0.4 g/day and 0.2 g/day and 1.3 g/day and 3.0 g/day and 4.7 g/day and 0.7 g/day in data set [1] (candesartan cilexetil 64 mg/day, individual patients); 0.9 g/day and 0.5 g/day and 0.3 g/day and 1.6 g/day and 3.4 g/day and 1.4 g/day and 2.4 g/day and 0.6 g/day in data set [1] (candesartan cilexetil 80 mg/day, individual patients); 0.6 g/day and 0.2 g/day and 1.8 g/day and 2.3 g/day and 0.7 g/day in data set [1] (candesartan cilexetil 96 mg/day, individual patients). Further, in [1] (dose extended beyond 32 mg/d), the “Effect on 24-hour urinary protein excretion beyond the recommended maximum dose” value is on record as “progressive reductions in 24-hour urinary protein excretion; also recorded: further reductions in urinary protein excretion in all subjects”. The Safety and tolerability entry in data set [2] (doses between 32 and 96 mg) is “safe, well-tolerated”.

As to `CCOc1nc2cccc(C(=O)O)c2n1Cc1ccc(-c2ccccc2-c2nnn[nH]2)cc1` [candesartan], the Tolerability result in data set [2] (96 mg/d) is “well tolerated, metabolically neutral”. Also, in [2] (at the higher doses of candesartan, attributable primarily to two of the ten patients), the “Increase in serum creatinine” value was 0.5 to 0.7 mg/dL. For the same molecule, the Serum potassium in [2] (throughout the dosing range of candesartan) is 4.3 to 4.5 mmol/L. The “Interval change in aortic root size (initial value minus most recent value)” value in data set [3] (one hypertensive subject, 128 mg/d) was 8 mm; in data set [3] (one normotensive subject, 64 mg/d), 12 mm. Moreover, the “Decrease in aortic root size” value in data set [3] (ten of 15 subjects, at least 9 months of ARB therapy) was “more than 2 mm”.

On to `CCOC(=O)[C@H](CCc1ccccc1)N[C@@H](C)C(=O)N1CCC[C@H]1C(=O)O` [enalapril], for which, in the data set with hypertensive patients, the “BP reductions in comparative short-term trials between ACEI and ARBs” value is “equivalent BP reductions”.

With `CCCCc1ncc(/C=C(\Cc2cccs2)C(=O)O)n1Cc1ccc(C(=O)O)cc1` [eprosartan], at AT1 receptor, the “Affinity for the AT1 receptor” value is “lower affinity” and the “Type of antagonism at the AT1 receptor” value is on record as “surmountable”.

Regarding `CCCCC1=NC2(CCCC2)C(=O)N1Cc1ccc(-c2ccccc2-c2nnn[nH]2)cc1` [irbesartan], the “Protein Excretion (24-hour urinary protein excretion rate)” value in data set [1] (irbesartan 150 mg, patient 7) was 0.5** g/day. For the same molecule, in [1] (irbesartan 300 mg, patient 6), the “Protein Excretion (24-hour urinary protein excretion rate)” value is 0.4^§ g/day. The Effect on microalbuminuria entry in [4] is “additional reductions in microalbuminuria”. Besides, at AT1 receptor, the “Affinity for the AT1 receptor” value is “high affinity” and the “Type of antagonism at the AT1 receptor” value is “insurmountable”. Further, the “BP reductions in comparative short-term trials between ACEI and ARBs” value in the data set on hypertensive patients is “equivalent BP reductions”.

Turning to `NCCCC[C@H](N[C@@H](CCc1ccccc1)C(=O)O)C(=O)N1CCC[C@H]1C(=O)O` [lisinopril], the “Renal protective effect of increasing the dose” value in data set [5] is “additional renal protective effects, independent of any BP reductions”. Besides, in the data set on hypertensive patients, the “BP reductions in comparative short-term trials between ACEI and ARBs” value is reported as “equivalent BP reductions”.

For the molecule `CCCCc1nc(Cl)c(CO)n1Cc1ccc(-c2ccccc2-c2nn[nH]n2)cc1` [losartan], the “Protein Excretion (24-hour urinary protein excretion rate)” value in data set [1] (losartan 50 mg, patient 6) is reported as 1.1^+ g/day. Also, the Effect on microalbuminuria entry in [4] is “additional reductions in microalbuminuria”. Besides, in data set [6] (either drug as monotherapy, ARB = losartan), the “Change of urinary protein excretion on monotherapy” value was −27%. Besides, the “Reduction of urinary protein excretion on combined ACEI and ARB therapy” value in [6] (losartan 50 mg/day added to a moderate dose of an ACEI) is reported as 69%. Besides, the “Type of antagonism at the AT1 receptor” value is “surmountable” at AT1 receptor and “competitive antagonist” at AT1 receptor (listed as Losartan). For the same molecule, the “BP reductions compared with ACEI” value with hypertensive patients (a few studies) is on record as “smaller BP reductions”. The “BP reductions in comparative short-term trials between ACEI and ARBs” value in the data set on hypertensive patients is given as “equivalent BP reductions”. Also, the “Antihypertensive response to add-on therapy” value in the data set with hypertensive patients (losartan 25-50 mg/d added to existing ramipril 2.5-5 mg/d, four-week study of 30 hypertensives) is “enhanced”.

For the molecule `CCOC(=O)[C@H](CCc1ccccc1)N[C@@H](C)C(=O)N1Cc2ccccc2C[C@H]1C(=O)O` [quinapril], the “Ability to block tissue ACE activity” value on tissue ACE is “better able to block tissue ACE activity”.

Turning to `CCOC(=O)[C@H](CCc1ccccc1)N[C@@H](C)C(=O)N1[C@H](C(=O)O)C[C@@H]2CCC[C@@H]21` [ramipril], the “Additive antihypertensive response to add-on therapy” value in the data set with hypertensive patients (ACEI (ramipril) added to existing ARB (losartan) therapy) is “small and not significant”.

In the case of `CCCc1nc2c(C)cc(-c3nc4ccccc4n3C)cc2n1Cc1ccc(-c2ccccc2C(=O)O)cc1` [telmisartan], in the data set with hypertensive patients, the “BP reductions in comparative short-term trials between ACEI and ARBs” value is “equivalent BP reductions”.

Take `CCCCC(=O)N(Cc1ccc(-c2ccccc2-c2nnn[nH]2)cc1)[C@H](C(=O)O)C(C)C` [valsartan]: the Effect on microalbuminuria result in data set [4] is given as “additional reductions in microalbuminuria”. In addition, the “BP reductions in comparative short-term trials between ACEI and ARBs” value in the data set with hypertensive patients is “equivalent BP reductions”.

These data come from patent US20030078190A1 (priority 2001, published 2003).
